The results in this text go back to US8039486B2, “Indole, azaindole and related heterocyclic N-substituted piperazine derivatives” (priority 2003, dated 2011).

The assay concerns HIV-1 single-round infectious reporter virus. Description: Single-round infectious HIV-1 luciferase reporter virus infection of HeLa CD4 cells. Type of assay: cell-based. The settings on record: Human immunodeficiency virus 1, HeLa, 72 h, read-out: EC50 Group from Table 1. As to the method:
• Virus production—Human embryonic Kidney cell line, 293, was propagated in Dulbecco's Modified Eagle Medium (Invitrogen, Carlsbad, Calif.) containing 10% fetal Bovine serum (FBS, Sigma, St. Louis, Mo.). • Virus infection—Human epithelial cell line, HeLa, expressing the HIV-1 receptor CD4 was propagated in Dulbecco's Modified Eagle Medium (Invitrogen, Carlsbad, Calif.) containing 10% fetal Bovine serum (FBS, Sigma, St. Louis, Mo.) and supplemented with 0.2 mg/mL Geneticin (Invitrogen, Carlsbad, Calif.). Virus-Single-round infectious reporter virus was produced by co-transfecting human embryonic Kidney 293 cells with an HIV-1 envelope DNA expression vector and a proviral cDNA containing an envelope deletion mutation and the luciferase reporter gene inserted in place of HIV-1 nef sequences (Chen et al, Ref 41). Transfections were performed using lipofectAMINE PLUS reagent as described by the manufacturer (Invitrogen, Carlsbad, Calif.). Experiment • 1. HeLa CD4 cells were plated in 96 well plates at a cell density of 1×10^4 cells per well in 100 μl Dulbecco's Modified Eagle Medium containing 10% fetal Bovine serum and incubated overnight. • 2. Compound was added in a 2 μl dimethylsulfoxide solution, so that the final assay concentration would be ≦10 μM. • 3. 100 μl of single-round infectious reporter virus in Dulbecco's Modified Eagle Medium was then added to the plated cells and compound at an approximate multiplicity of infection (MOI) of 0.01, resulting in a final volume of 200 μl per well. • 4. Virally-infected cells were incubated at 37 degrees Celsius, in a CO2 incubator, and harvested 72 h after infection. • 5. Viral infection was monitored by measuring luciferase expression from viral DNA in the infected cells using a luciferase reporter gene assay kit, as described by the manufacturer (Roche Molecular Biochemicals, Indianapolis, Ind.). Infected cell supernatants were removed and 50 μl of lysis buffer was added per well. After 15 minutes, 50 μl of freshly-reconstituted luciferase assay reagent was added per well. Luciferase activity was then quantified by measuring luminescence using a Wallac microbeta scintillation counter. • 6. The percent inhibition for each compound was calculated by quantifying the level of luciferase expression in cells infected in the presence of each compound as a percentage of that observed for cells infected in the absence of compound and subtracting such a determined value from 100. • 7. An EC50 provides a method for comparing the antiviral potency of the compounds of this invention. The effective concentration for fifty percent inhibition (EC50) was calculated with the Microsoft Excel Xlfit curve fitting software. For each compound, curves were generated from percent inhibition calculated at 10 different concentrations by using a four paramenter logistic model (model 205). Table 1 is the key for the data in Table 2. Results
(Reporter assays use an easily measured gene product as a stand-in for the process of interest.)

What is called EC50 is the concentration needed to bring the measured effect to its halfway point. Turning to `O=C(C(=O)N1CCN(c2nncc3ccccc23)CC1)c1c[nH]c2c(Br)ncc(F)c12` [Example 92], the EC50 was below 1000 nM. As for `COc1ccc(-c2nn[nH]n2)c2[nH]cc(C(=O)C(=O)N3CCN(c4nccc5ccccc45)CC3)c12` [Example 15], the EC50 is below 1000 nM.

Turning to `COc1cnc(-n2ccnn2)c2[nH]cc(C(=O)C(=O)N3CCN(c4ncnc5ccccc45)CC3)c12` [Example 52], the EC50 was below 1000 nM. To `COc1ccc(C#N)c2[nH]cc(C(=O)C(=O)N3CCN(c4nccc5ccccc45)CC3)c12` [Example 43] belongs below 1000 nM; to `COc1cnc(-n2ccnn2)c2[nH]cc(C(=O)C(=O)N3CCN(c4nc(C)nc5ccccc45)CC3)c12` [Example 61], below 1000 nM. To `CNC(=O)Cc1n[nH]c(-c2ccc(OC)c3c(C(=O)C(=O)N4CCN(c5nccc6ccccc56)CC4)c[nH]c23)n1` [Example 34] belongs below 1000 nM; to `COc1ccc(-c2ncn[nH]2)c2[nH]cc(C(=O)C(=O)N3CCN(c4nccc5ccccc45)CC3)c12` [Example 21], below 1000 nM.

With `COc1cnc(-n2cnc(C)n2)c2[nH]cc(C(=O)C(=O)N3CCN(c4nc(N)cc5ccccc45)CC3)c12` [Example 65], the EC50 is below 1000 nM. To `O=C(C(=O)N1CCN(c2ncnc3ccccc23)CC1)c1c[nH]c2c(-c3cncnc3)ncc(F)c12` [Example 81] belongs below 1000 nM; to `O=C(C(=O)N1CCN(c2nncc3ccccc23)CC1)c1c[nH]c2c(-c3cnccn3)ncc(F)c12` [Example 78], below 1000 nM; to `CCOC(=O)c1ccc(OC)c2c(C(=O)C(=O)N3CCN(c4nccc5ccccc45)CC3)c[nH]c12` [Example 13], below 1000 nM. Next, `COc1cnc(-n2cnc(C)n2)c2[nH]cc(C(=O)C(=O)N3CCN(c4nc(C)nc5ccccc45)CC3)c12` [Example 60]: below 1000 nM; `O=C(C(=O)N1CCN(c2ccc3ccccc3n2)CC1)c1c[nH]c2c(-n3ccnn3)ncc(F)c12` [Example 91]: below 1000 nM. Next, `N=C(NNC(=O)c1ccccc1)c1ncc(F)c2c(C(=O)C(=O)N3CCN(c4nccc5ccccc45)CC3)c[nH]c12` [Example 89]: below 1000 nM. `COc1ccc(-c2nc(CC(N)=O)n[nH]2)c2[nH]cc(C(=O)C(=O)N3CCN(c4nccc5ccccc45)CC3)c12` [Example 35]: the EC50 was below 1000 nM.

On to `O=C(C(=O)N1CCN(c2nncc3ccccc23)CC1)c1c[nH]c2c(-n3ccnn3)ncc(F)c12` [Example 56], for which the EC50 is below 1000 nM. `Cc1cc(N2CCN(C(=O)C(=O)c3c[nH]c4c(-c5ncon5)ccc(F)c34)CC2)c2ccccc2n1` [Example 40]: the EC50 was below 1000 nM.

As for `O=C(C(=O)N1CCN(c2nccc3ccccc23)CC1)c1c[nH]c2c(-c3ncon3)ccc(F)c12` [Example 1], the EC50 was below 1000 nM. To `COc1ccc(C(=N)NNC(=O)c2cccnc2)c2[nH]cc(C(=O)C(=O)N3CCN(c4nccc5ccccc45)CC3)c12` [Example 23] belongs below 1000 nM. In the case of `COc1cnc(-n2cnc(C)n2)c2[nH]cc(C(=O)C(=O)N3CCN(c4nncc5ccccc45)CC3)c12` [Example 55], the EC50 was below 1000 nM. With `COc1nnc(N2CCN(C(=O)C(=O)c3c[nH]c4c(-n5cnc(C)n5)ncc(OC)c34)CC2)c2ccccc12` [Example 57], the concentration for a half-maximal effect (EC50) is below 1000 nM. For the compound `CNC(=O)Cn1nnc(-c2ccc(OC)c3c(C(=O)C(=O)N4CCN(c5nccc6ccccc56)CC4)c[nH]c23)n1` [Example 28], the EC50 was below 1000 nM.

Consider `N#Cc1ncc(F)c2c(C(=O)C(=O)N3CCN(c4nccc5ccccc45)CC3)c[nH]c12` [Example 87], for which the EC50 was below 1000 nM. To `COc1cnc(-n2ccnn2)c2[nH]cc(C(=O)C(=O)N3CCN(c4nc(Cl)cc5ccccc45)CC3)c12` [Example 67] belongs below 1000 nM; to `O=C(C(=O)N1CCN(c2ncnc3ccccc23)CC1)c1c[nH]c2c(-c3cccnc3)ncc(F)c12` [Example 83], below 1000 nM. Turning to `COc1ccc(-n2cncn2)c2[nH]cc(C(=O)C(=O)N3CCN(c4nccc5ccccc45)CC3)c12` [Example 31], the EC50 is below 1000 nM. With `O=C(C(=O)N1CCN(c2nc(Cl)cc3ccccc23)CC1)c1c[nH]c2c(-n3ccnn3)ncc(F)c12` [Example 68], the EC50 is below 1000 nM. To `COc1ccc(C#N)c2[nH]cc(C(=O)C(=O)N3CCN(c4ncnc5ccccc45)CC3)c12` [Example 44] belongs below 1000 nM; to `COc1cnc(-n2cncn2)c2[nH]cc(C(=O)C(=O)N3CCN(c4nccc5ccccc45)CC3)c12` [Example 36], below 1000 nM; to `COc1cnc(C(N)=O)c2[nH]cc(C(=O)C(=O)N3CCN(c4nncc5ccccc45)CC3)c12` [Example 64], below 1000 nM. Next, `COc1cnc(Cl)c2[nH]cc(C(=O)C(=O)N3CCN(c4ncnc5ccccc45)CC3)c12` [Example 75]: below 1000 nM; `COc1cnc(C(=O)O)c2[nH]cc(C(=O)C(=O)N3CCN(c4ncnc5ccccc45)CC3)c12` [Example 50]: below 1000 nM. In the case of `COc1ccc(-n2cccc2)c2[nH]cc(C(=O)C(=O)N3CCN(c4nccc5ccccc45)CC3)c12` [Example 6], the EC50 is below 1000 nM. Next, `COc1ccc(-c2ncon2)c2[nH]cc(C(=O)C(=O)N3CCN(c4nccc5ccccc45)CC3)c12` [Example 17]: below 1000 nM; `Cc1nc(N2CCN(C(=O)C(=O)c3c[nH]c4c(-n5ccnn5)ncc(F)c34)CC2)c2ccccc2n1` [Example 59]: below 1000 nM; `COc1ccc(C(N)=O)c2[nH]cc(C(=O)C(=O)N3CCN(c4nccc5ccccc45)CC3)c12` [Example 12]: below 1000 nM.

For the compound `COc1cc(N2CCN(C(=O)C(=O)c3c[nH]c4c(-n5cncn5)ncc(OC)c34)CC2)c2cc(C)ccc2n1` [Example 86], the EC50 was below 1000 nM. To `O=C(C(=O)N1CCN(c2ncnc3ccccc23)CC1)c1c[nH]c2c(Br)ncc(F)c12` [Example 73] belongs below 1000 nM.

`COc1ncc(OC)c2c(C(=O)C(=O)N3CCN(c4ncnc5ccccc45)CC3)c[nH]c12` [Example 9]: the EC50 is below 1000 nM. In the case of `COc1cnc(C#N)c2[nH]cc(C(=O)C(=O)N3CCN(c4ncnc5ccccc45)CC3)c12` [Example 45], the EC50 is below 1000 nM. Next, `COc1cnc(-c2cc[nH]n2)c2[nH]cc(C(=O)C(=O)N3CCN(c4ncnc5ccccc45)CC3)c12` [Example 96]: below 1000 nM; `COc1cnc(-n2cnc(C)n2)c2[nH]cc(C(=O)C(=O)N3CCN(c4ncnc5ccccc45)CC3)c12` [Example 46]: below 1000 nM; `COc1ccc(C(=N)NNC(=O)CC#N)c2[nH]cc(C(=O)C(=O)N3CCN(c4nccc5ccccc45)CC3)c12` [Example 25]: below 1000 nM. Next, `COc1ccc(C(=N)NC2CC2)c2[nH]cc(C(=O)C(=O)N3CCN(c4nccc5ccccc45)CC3)c12` [Example 18]: below 1000 nM; `COc1cnc(-n2cnc(C#N)n2)c2[nH]cc(C(=O)C(=O)N3CCN(c4ncnc5ccccc45)CC3)c12` [Example 69]: below 1000 nM; `O=C(C(=O)N1CCN(c2ncnc3ccccc23)CC1)c1c[nH]c2c(-c3cc[nH]n3)ncc(F)c12` [Example 94]: below 1000 nM. Next, `COc1cnc(C#N)c2[nH]cc(C(=O)C(=O)N3CCN(c4nccc5ccccc45)CC3)c12` [Example 7]: below 1000 nM; `O=C(C(=O)N1CCN(c2ncnc3ccccc23)CC1)c1c[nH]c2c(-c3ncccn3)ncc(F)c12` [Example 84]: below 1000 nM.

`COc1ncc(-c2ncc(F)c3c(C(=O)C(=O)N4CCN(c5ncnc6ccccc56)CC4)c[nH]c23)cn1` [Example 82]: the EC50 is below 1000 nM. With `COc1cnc(-n2cnc(C)n2)c2[nH]cc(C(=O)C(=O)N3CCN(c4ccc5ccccc5n4)CC3)c12` [Example 90], the EC50 is below 1000 nM.

As to `O=C(C(=O)N1CCN(c2nccc3ccccc23)CC1)c1c[nH]c2c(-c3nc(-c4ccccc4)n[nH]3)ncc(F)c12` [Example 88], the EC50 was below 1000 nM.

With `COc1cnc(-n2cncn2)c2[nH]cc(C(=O)C(=O)N3CCN(c4ccnc5ccccc45)CC3)c12` [Example 85], the EC50 is below 1000 nM. Take `COc1ccc(-c2noc(C)n2)c2[nH]cc(C(=O)C(=O)N3CCN(c4nccc5ccccc45)CC3)c12` [Example 20]: the EC50 is below 1000 nM. With `COc1cnc(-n2ccnn2)c2[nH]cc(C(=O)C(=O)N3CCN(c4nncc5ccccc45)CC3)c12` [Example 54], the EC50 is below 1000 nM.
